According to ChEMBL document CHEMBL4396936 (Bioorg Med Chem Lett, 2019):

Key:
[1] = biological target: T1, Indoleamine 2,3-dioxygenase 1 (Homo sapiens, UniProt P14902); test: Binding affinity to recombinant ferric state of IDO1 (unknown origin) expressed in Escherichia coli assessed as dissociation constant incubated for 30 mins by UV-Visible spectrophotometric method
Target sequence in this assay (P14902 whole entry): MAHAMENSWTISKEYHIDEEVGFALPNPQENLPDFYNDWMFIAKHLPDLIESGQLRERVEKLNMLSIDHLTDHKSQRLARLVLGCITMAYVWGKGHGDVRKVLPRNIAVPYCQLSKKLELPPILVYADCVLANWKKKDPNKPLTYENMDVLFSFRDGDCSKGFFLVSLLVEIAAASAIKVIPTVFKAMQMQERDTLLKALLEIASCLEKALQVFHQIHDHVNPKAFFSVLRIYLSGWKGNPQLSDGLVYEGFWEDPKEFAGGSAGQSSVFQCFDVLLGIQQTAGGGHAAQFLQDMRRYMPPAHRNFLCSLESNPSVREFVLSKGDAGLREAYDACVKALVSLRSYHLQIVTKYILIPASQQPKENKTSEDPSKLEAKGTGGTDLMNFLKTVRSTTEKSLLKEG

[2] = biological target: T1, Indoleamine 2,3-dioxygenase 1; test: Binding affinity to recombinant ferrous state of IDO1 (unknown origin) expressed in Escherichia coli assessed as dissociation constant incubated for 30 mins by UV-Visible spectrophotometric method
Target sequence in this assay (P14902 whole entry): as above

[3] = biological target: T1, Indoleamine 2,3-dioxygenase 1; test: Inhibition of recombinant IDO1 (unknown origin) expressed in Escherichia coli at 10 uM incubated for 30 mins by methylene blue dye based UV-Visible spectrophotometric method relative to control
Target sequence in this assay (P14902 whole entry, looked up): as the sequence (P14902 whole entry) above

[4] = biological target: Indoleamine 2,3-dioxygenase 1 (Homo sapiens, UniProt P14902, C129Y); test: Binding affinity to recombinant ferrous state of IDO1 C129Y mutant (unknown origin) expressed in Escherichia coli assessed as dissociation constant incubated for 30 mins by UV-Visible spectrophotometric method
Sequence of Indoleamine 2,3-dioxygenase 1 (Homo sapiens, UniProt P14902, C129Y) (P14902 whole entry C129Y): as the sequence (P14902 whole entry) above, with C129Y counted along it

[5] = system: Indoleamine 2,3-dioxygenase 1 (Homo sapiens), P14902 [C129Y]; test: Inhibition of recombinant IDO1 C129Y mutant (unknown origin) expressed in Escherichia coli at 10 uM incubated for 30 mins by methylene blue dye based UV-Visible spectrophotometric method relative to control
Sequence of Indoleamine 2,3-dioxygenase 1 (Homo sapiens), P14902 [C129Y] (P14902 whole entry C129Y): as the sequence (P14902 whole entry) above, with C129Y counted along it

Structure (SMILES)	Kd [1] [µM]	Kd [2] [µM]	inhibition [3] [%]	Kd [4] [µM]	inhibition [5] [%]
Cc1cc([Si](C)(C)C)c2cn[nH]c2c1	2.5	1.7	50		
C#Cc1cc(C(O)Cc2ccccc2)c2cn[nH]c2c1 (racemic)	7.4	1.3	32	94	12
OC(Cc1ccccc1)c1cc(-c2ccccc2)cc2[nH]ncc12 (racemic)		53	4		14
OC(Cc1ccccc1)c1cccc2[nH]ncc12 (racemic)	31	7.9	13	66	14
C[Si](C)(C)c1cccc2[nH]ncc12	150	43	7.2		
c1ccc2[nH]ncc2c1			1		

More lines, now with the values ahead:

Kd [1] [µM]	Kd [2] [µM]	inhibition [3] [%]	Kd [4] [µM]	inhibition [5] [%]	Structure (SMILES)
1.1	0.74	70	44	18	CCc1cc(C(O)Cc2ccccc2)c2cn[nH]c2c1 (racemic)
0.6	0.14	90	2.2	23	OC(Cc1ccccc1)c1cc(Br)cc2[nH]ncc12 (racemic)
	1.2	62	28	20	OC(Cc1ccccc1)c1cc(C2CC2)cc2[nH]ncc12 (racemic)
1.2	0.47	76	27	18	Cc1cc(C(O)Cc2ccccc2)c2cn[nH]c2c1 (racemic)
